Experimental data: article PMC8187357 (Communications Biology, 2021)
Where “and” joins values, the source holds several entries; their conditions need not be identical. Equal entries are not always repeated.

What was measured:
[1] = target: T1, VISTA (Homo sapiens, UniProt Q9H7M9); assay: VISTA functional assay (IFN-γ release, human PBMC); format: cell-based; conditions: for IFNγ Rescue (%): inhibited by VISTA; for IFNγ Rescue (%) / IFN-γ: replicates; for IFN-γ: human PBMCs + anti-CD3/anti-CD28 + VISTA 2.5 µg/mL
T1 construct: purchased R&D systems 126-B7
T1 sequence (Q9H7M9 with tags, fused parts or gaps limits assumed): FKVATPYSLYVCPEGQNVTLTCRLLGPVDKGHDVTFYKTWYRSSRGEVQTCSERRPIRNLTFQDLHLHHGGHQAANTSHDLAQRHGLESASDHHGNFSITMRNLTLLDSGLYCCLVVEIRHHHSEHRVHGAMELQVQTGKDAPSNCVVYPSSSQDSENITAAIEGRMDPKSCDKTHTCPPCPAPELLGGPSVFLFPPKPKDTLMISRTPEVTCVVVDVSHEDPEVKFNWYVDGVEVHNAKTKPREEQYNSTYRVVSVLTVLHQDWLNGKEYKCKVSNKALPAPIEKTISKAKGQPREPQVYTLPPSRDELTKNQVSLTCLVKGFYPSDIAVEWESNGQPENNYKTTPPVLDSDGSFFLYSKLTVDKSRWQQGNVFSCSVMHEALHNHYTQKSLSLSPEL
Method: The ability of CA-170 to rescue VISTA-mediated inhibition of IFN-γ release from anti-CD3/CD28-stimulated human PBMC was used to monitor the effect of CA-170 on VISTA functionality. Briefly, 96-well cell culture plates were pre-coated with recombinant human VISTA (2.5 µg/mL) and anti- human CD3 (2.5 µg/mL) overnight at 4 °C. Anti-human VISTA and isotype control antibodies were either coated along with the VISTA or incubated for 30 min next day before addition of cells. On the next day, plates were incubated with CA-170 for 30 min at different concentrations. Isolated PBMC (0.1 × 10^6 cells/well) and anti-human CD28 antibodies (1 µg/mL) were added to the wells. The culture was further incubated for 72 h at 37 °C with 5% CO2. After 72 h of incubation the cell culture supernatants were collected after brief centrifugation at 200 g x 5 min at 4 °C and processed for human IFN-γ measurement by ELISA following manufacturer’s protocol (R&D Systems; DY-285). Percent rescue of IFN-γ release was calculated by normalizing individual percent test agent IFN-γ release values to percent anti-CD3 and anti-CD28 antibodies stimulated IFN-γ release. EC50 values were derived by plotting transformed data into non-linear fit in sigmoidal dose–response curve using GraphPad Prism software (Version 7).

[2] = test system: human PBMCs; assay: Cytokine induction in human PBMCs; format: cell-based; conditions: for IFNγ: 48 h, normal density, replicates
Method: To determine the potential for any unforeseen T-cell agonist activity in humans, a study was conducted where human PBMCs from healthy donors were pre-cultured either at normal density (2 × 10^5 cells/well) or at high density (1 × 10^7 cells/mL) in vitro to increase cell–cell contacts and immune scanning as described[24] and then treated with CA-170 (10 nM to 1000 nM) IL-2, TNF-α and IFN-γ cytokine release was measured in the culture supernatants at 24 and 48 h. Human PBMCs stimulated with anti-CD3 alone or anti-CD3 + anti-CD28 antibodies served as positive controls for cytokine release in this assay.

[3] = test system: Endothelin ETA, ETB; assay: CEREP 80 panel binding: Endothelin; conditions: 10 µM
Method: (§1) CEREP 80 panel assay was carried out by Eurofins Cerep Panlabs facility at France. A series of binding assays was carried out to understand the off-target toxicity of CA-170. CA-170 was tested at 10 μM test concentration in duplicates. Compound binding was calculated as a % inhibition of the binding of a radioactively labeled ligand specific for each target. In each experiment the respective reference compound was tested concurrently with CA-170, and the data were compared with historical values determined at Eurofins. The experiment was accepted in accordance with Eurofins validation standard operating procedure. The results are expressed as a percent of control specific binding; (measured specific binding / control specific binding) × 100 and as a percent inhibition of control specific binding; 100−(measured specific binding / control specific binding) × 100 obtained in the presence of CA-170. The IC50 values (concentration causing a half-maximal inhibition of control specific binding) and Hill coefficients (nH) were determined by non-linear regression analysis of the competition curves generated with mean replicate values using Hill equation curve fitting.

[4] = target: T2, PD-L2 (Mus musculus, UniProt Q9WUL5); assay: Rescue of PD-L2 mediated inhibition of proliferation, mouse splenocytes; format: cell-based; conditions: mean ± S.D.; n=2; read-out: Mouse Splenocyte Proliferation Rescue EC50 PD-L2
T2 construct: purchased R&D Systems 1022-PL-100
T2 sequence (Q9WUL5 with tags, fused parts or gaps limits assumed): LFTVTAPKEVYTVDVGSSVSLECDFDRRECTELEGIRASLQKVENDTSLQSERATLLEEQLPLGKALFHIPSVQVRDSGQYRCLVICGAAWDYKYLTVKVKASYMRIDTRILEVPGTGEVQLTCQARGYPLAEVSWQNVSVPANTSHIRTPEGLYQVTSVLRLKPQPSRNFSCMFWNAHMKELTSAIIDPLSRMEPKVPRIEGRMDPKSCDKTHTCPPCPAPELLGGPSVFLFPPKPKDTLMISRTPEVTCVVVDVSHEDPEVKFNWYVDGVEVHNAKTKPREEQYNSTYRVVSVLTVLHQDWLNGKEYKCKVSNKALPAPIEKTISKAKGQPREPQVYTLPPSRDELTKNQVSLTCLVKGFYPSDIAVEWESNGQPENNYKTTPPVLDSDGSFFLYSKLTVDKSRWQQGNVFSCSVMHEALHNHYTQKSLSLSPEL
Method: For all in vitro assays, test agent stock was prepared in water and diluted further in the assay media to achieve test concentrations. Each experimental condition was carried out in triplicates. Percent rescue for a given test compound concentration was calculated by normalizing individual percent test agent proliferation or IFN-γ release values to percent anti-CD3 and anti-CD28 antibodies stimulated proliferation or IFN-γ release.

[5] = test system: PACAP,VIP1; assay: CEREP 80 panel binding: VIP; conditions: 10 µM
Method: as §1

[6] = Phase 1, cited from earlier work
[7] = test system: B16F10 melanoma; assay: B16F10 melanoma lung metastasis model; format: in vivo, mouse; conditions: 10 mg/kg/day orally for 14 days
Method: Studies in syngeneic models including B16 melanoma metastasis model and CT26 colon carcinoma subcutaneous model were performed as described. For the Docetaxel combination experiment in CT26 model, indicated dosage of docetaxel (Source: Docetere® injection by Dr Reddy’s Laboratories) was dosed intraperitoneally to animals. For the CA-170 combination groups, CA-170 (10 mg/kg/day, oral) was dosed ~10 min after docetaxel. Animal grouping, treatment efficacy assessment and %TGI calculations were performed as mentioned above. For the CT26 experiment with cyclophosphamide, 100 mg/kg of cyclophosphamide was dosed once on day 5 intraperitoneally after cell implantation (first day of dosing for all other groups). Anti-PD1 antibody (Clone J43 from BioXcel) was dosed intraperitoneally at 100 µg/animal once every week.

[8] = Plasma stability, mice; conditions: mouse
Method: Test compounds were tested for plasma stability (test concentration of 10 μM) as per the protocols reported in publication[20].

C[C@@H](O)[C@H](NC(=O)N[C@@H](CC(N)=O)c1nc([C@@H](N)CO)no1)C(=O)O [CA-170]
IFNγ Rescue (%) ([1]; 1.95 nM): -2.58% and 0.00% and 0.36% | IFNγ Rescue (%) ([1]; 3.91 nM): -0.86% and 0.32% and 1.09% | IFNγ Rescue (%) ([1]; 7.81 nM): 5.58% and 4.87% and 6.18% | IFNγ Rescue (%) ([1]; 15.63 nM): 21.46% and 16.88% and 19.64% | IFN-γ ([1]; 31.25 nM): 1018 pg/mL and 1268 pg/mL and 1298 pg/mL | IFNγ Rescue (%) ([1]; 31.25 nM): 36.91% and 37.66% and 42.55% | IFNγ Rescue (%) ([1]; 62.50 nM): 48.07% and 36.69% and 46.91% | IFNγ Rescue (%) ([1]; 250.00 nM): 107.73% and 72.73% and 91.64% | IFN-γ ([1]; 500 nM): 2498 pg/mL and 2438 pg/mL and 2828 pg/mL | IFNγ Rescue (%) ([1]; 500.00 nM): 100.43% and 75.65% and 98.18% | rescue of IFNγ release inhibited by recombinant VISTA (in words) ([1]; human PBMCs stimulated with anti-CD3 and anti-CD28): rescued IFNγ release | EC50 ([1]; mean ± S.D., n=4, read-out: Human PBMC IFN-γ Rescue EC50 VISTA): 82.9 nM | IFN-γ ([2]; 24 hours, Normal density, 10nM): BLoD | IFN-γ ([2]; 24 hours, Normal density, 50nM): BLoD | IFN-γ ([2]; 24 hours, Normal density, 100nM): BLoD | IFN-γ ([2]; 24 hours, Normal density, 250nM): BLoD | IFN-γ ([2]; 24 hours, Normal density, 500nM): BLoD | IFN-γ ([2]; 24 hours, Normal density, 1000nM): BLoD | IFNγ ([2]; 10 nM): BLOD | IFNγ ([2]; 50 nM): BLOD | IFNγ ([2]; 100 nM): BLOD | IFNγ ([2]; 250 nM): BLOD | IFNγ ([2]; 500 nM): BLOD | IFNγ ([2]; 1000 nM): BLOD | IFN-γ ([2]; human, 24 h, 10 nM): 2.8 ± 1.9 pg/mL | IFN-γ ([2]; human, 24 h, 50 nM): 1.5 ± 1.0 pg/mL | IFN-γ ([2]; human, 24 h, 100 nM): 1.5 ± 0 pg/mL | IFN-γ ([2]; human, 24 h, 250 nM): 4.0 ± 0.7 pg/mL | IFN-γ ([2]; human, 24 h, 500 nM): 6.8 ± 1.5 pg/mL | IFN-γ ([2]; human, 24 h, 1000 nM): 5.8 ± 1.4 pg/mL | cytokine induction (in words) ([2]; normal and high-density culture conditions): did not induce significant levels of cytokines | % Inhibition of Control Specific Binding [3]: ≤ 9% | EC50 [4]: 40.2 nM | % Inhibition of Control Specific Binding [5]: ≤ 9% | peripheral T-cell activation (in words) ([6]; circulating CD8+ and CD4+ T cells expressing CD69, Granzyme B, OX-40): Evidence of peripheral T-cell activation | T1/2 ([6]; oral 50 to 1200 mg): 4 to 9.5 h | safety profile (in words) ([6]; oral 50 to 1200 mg): acceptable safety profile | reduction in metastatic nodules ([7]; B16F10, vs vehicle control): 73% | Individual Metastatic nodules on lungs ([7]; B16F10 iv in C57B6 mice, 10 mg/kg/day): 3 and 23 and 2 and 13 and 0 and 8 and 1 and 10 and 14 | remaining at 4 h, 10 μM [8]: > 95%
